According to patent US20120108557A1, “FLUOROQUINOLONE DERIVATIVES FOR OPHTHALMIC APPLICATIONS” (ALCON RESEARCH, LTD., priority 2008, published 2012):

Columns and labels:
in vitro = details: for Papp at 5 h, 100 μMole / MEAN LAG TIME: female, New Zealand Albino, rabbit; for MEAN LAG TIME: 100 μMole
Method: The procedure used is summarized below.
Female New Zealand Albino rabbits were sacrificed by first anaesthetizing with ketamine (30 mg/Kg) and xylazine (6 mg/Kg) followed by an injection of an overdose of […]* (sodium pentobarbital, 1 ml of a 26% solution) into the marginal ear vein. The intact eyes, along with the lids and conjunctival sacs were then enucleated and immediately stored in about 70 ml of fresh BSS PLUS® irrigation solution saturated with O2/CO2 (95:5).
To accomplish this, the exposed cornea of the enucleated eye was carefully placed on a corneal holder, which maintained the cornea curvature and held the eye in place. Various tissues of the eye were dissected leaving the cornea, a small ring of scleral tissue, and the palpebral conjunctiva. The conjunctival and scleral tissue served as a gasket and permitted the cornea to be suspended within the corneal ring in the center of the perfusion chamber. The chamber was jacketed to maintain the cornea and the perfusion solution at 35° C. The corneal holder and chamber were made from acrylic plastic at the University of Iowa, Iowa City, Iowa.
The mounted cornea was clamped between the two cylindrical compartments of the perfusion chamber and 7.5 mls of BSS PLUS® irrigating solution was placed in the receiving (endothelial) side of the chamber with stirring and bubbling of the O2/CO2 (95:5) mixture. Then, 7 mls of the fluoroquinolone dissolved in BSS PLUS® irrigating solution at a concentration of 100 μMole (this is approximately 4 mg/100 mL) was added to the donor (epithelial) side of the chamber also with stirring and bubbling of the O2/CO2 (95:5) mixture. The difference in volume ensured that the cornea would not buckle during the course of the experiment.
Samples (150 μL) were withdrawn from the receiving chamber every 30 minutes over a five hour period, and an equal volume of irrigating solution was immediately added to the receiving chamber to maintain a constant volume. The concentration of fluoroquinolones in the samples was determined using reverse-phase HPLC. […] Mixtures of acetonitrile and 31 mM phosphoric acid/sodium phosphate buffer at pH=3 were the mobile phase. The mobile phase (acetonitrile:phosphate buffer v/v) and UV detection wavelengths for each of the fluoroquinolones was determined beforehand. […] After each permeability experiment, the cornea was trimmed of excess scleral tissue and conjunctiva, weighed and dried overnight over phosphorus pentoxide in a vacuum desiccator. It was then reweighed in order to determine the hydration level. […] If the cornea is damaged in any way the hydration level rises. Data from corneas with hydration levels over 83% are discarded.
The rate of drug accumulation in the receiving (endothelial) chamber, and the apparent Permeability Coefficients (Papp) of the fluoroquinolones were then calculated as follows: […]

microorganisms = test: In vitro antimicrobial activity test, whole panel of test organisms; type: cell-based; details: across the test organisms of TABLE 3
Method: The activity of the compounds of the present invention was evaluated using an in vitro assay. Microorganisms were prepared from growth on agar media, in broth culture, or from thawed cryopreserved cultures. Fungal cultures were filtered to remove mycelial elements.
Using Mueller Hinton II Broth, 0.9% saline or other appropriate media, a suspension of each culture was prepared and adjusted to a turbidity equivalent to that of a 0.5 McFarland Standard. (Cultures adjusted to the 0.5 McFarland Standard generally contain approximately 1.0×10^8 CFU/mL). The adjusted suspension for each culture was diluted 1:10 in the appropriate media so that the inoculum concentration approximates 1.0×10^7 CFU/mL.
The antimicrobial agent to be tested was weighed and diluted with a volume of sterile distilled water calculated to yield the necessary starting concentration. Serial 1:2 dilutions of the antimicrobial agent in sterile distilled water were prepared (approximately 10-12 test concentrations comprise a reasonable experimental range). A known amount of each antimicrobial dilution was combined with an aliquot of agar medium calculated to yield the desired final antimicrobial test concentration and dispensed onto plates.
The amount of antimicrobial agent to be weighed was determined using the following equation: […]
Antimicrobial stock solutions were prepared at concentrations 5-10 times the highest concentration to be tested (routinely 1024 μg/mL). […] The stock solution was diluted to appropriate concentration using sterile water to form a working solution. The working solution was diluted two-fold, in sterile water, until the desired concentration is obtained.
Mueller Hinton II agar was prepared as described by the manufacturer. Mueller Hinton II agar may be supplemented with 5% defibrinated sheep blood for testing streptococci. Agar was added to the serially diluted antimicrobial solution in each container. The solutions were mixed thoroughly and poured into petri dishes (about 25 mL/plate). The pH of the agar at 25° C. should be between 7.2 and 7.4. […]

| Compound | Papp at 5 h, 100 μMole (in vitro) [×10⁻⁶ cm/s] | MEAN LAG TIME (in vitro) [min] | permeability and lag characteristics among the compounds studied (in words) (in vitro) | antimicrobial activity compared to moxifloxacin (in words) (microorganisms) |
| --- | --- | --- | --- | --- |
| Nc1c(F)c(N2CC3CCCNC3C2)c(F)c2c1c(=O)c(C(=O)O)cn2C1CC1 [Compound 3 (S,S)] | 13.6 | 45 | – | – |
| CN1CCCC2CN(c3cc4c(cc3F)c(=O)c(C(=O)O)cn4C3CC3)CC21 (stereo not drawn) [Compound 2] | 20.5 | 27 | best permeability and lag characteristics of the compounds studied | generally did not perform as well as moxifloxacin |
| CN1CCCC2CN(c3c(F)cc4c(=O)c(C(=O)O)cn(C5CC5)c4c3F)CC21 (stereo not drawn) [Compound 1] | 31.1 | 12 | best permeability and lag characteristics of the compounds studied | somewhat better antimicrobial activity against certain microorganisms compared to moxifloxacin, and performed comparably when taken as a whole |
| Nc1c(F)c(N2CC3CCCNC3C2)c(F)c2c1c(=O)c(C(=O)O)cn2C1CC1 (racemic) [Compound 3 (racemic)] | 16.6 | 38 | – | – |
